Measurements published in article PMC9457259 (Proceedings of the National Academy of Sciences of the …, 2022).

Target: human voltage-gated proton channel hHv1 (Homo sapiens, UniProt Q96D96)
Assay: liposome proton flux assay
Assay type: biochemical

human voltage-gated proton channel hHv1, sequence (Q96D96 whole entry): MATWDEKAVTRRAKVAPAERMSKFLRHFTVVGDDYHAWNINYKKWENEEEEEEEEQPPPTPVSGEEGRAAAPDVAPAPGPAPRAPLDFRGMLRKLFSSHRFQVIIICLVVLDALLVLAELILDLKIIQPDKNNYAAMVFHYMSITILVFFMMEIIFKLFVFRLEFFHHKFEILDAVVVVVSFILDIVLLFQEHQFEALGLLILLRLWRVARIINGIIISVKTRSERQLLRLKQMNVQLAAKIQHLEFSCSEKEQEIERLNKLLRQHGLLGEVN

## CC(C)CCC[C@@H](C)[C@H]1CC[C@H]2[C@@H]3CC=C4C[C@@H](O)CC[C@]4(C)[C@H]3CC[C@]12C [cholesterol]
  IC50: ~ 10 % (wt/wt, to total membrane lipids)
